{"source": "patent US6875594B2", "about": "“Methods of ligating expressed proteins” (The Rockefeller University, priority 1997, dated 2005)", "biological_target": "AsiA (Enterobacteria phage T4, UniProt P32267)", "sequence (P32267 whole entry, the tested form may be a part)": "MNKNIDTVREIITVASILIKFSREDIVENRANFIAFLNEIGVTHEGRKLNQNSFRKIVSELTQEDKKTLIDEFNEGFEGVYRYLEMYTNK", "conditions": "His-tagged σ fragment on Ni2+-NTA beads, imidazole elution", "procedure": "The complementary experiment was done using wild type, untagged AsiA. Instead, a synthetic hexahistidine tag was chemically ligated to the N-terminus of σ568-600 as described herein. AsiA and His-tagged σ fragment were loaded on Ni^2+NTA beads, the beads were washed and eluted with increasing concentrations of imidazole in the buffer.\n100 μl reactions contained 15 μl of Ni^2+-NTA agarose (Qiagen), 50-100 pmol σ^70 or σ^70 derivative, 200 pmol AsiAHis, 20 mM Tris-HCl, pH 7.9, 100 mM KCl, 10 mM MgCl2. Reactions were preincubated for 15 min at room temperature, after which the beads were pelleted by brief centrifugation and the supernatant, containing the unbound material was removed. The beads were then washed three times with the same buffer containing 10 mM imidazole, pH 8.0, resuspended in 50 μl of the buffer containing 100 mM imidazole and incubated for additional 15 min at room temperature. The supernatant containing the bound material was then withdrawn. Aliquots of the reactions were then analyzed on 8-25% Phast gels (Pharmacia) and silver stained."}
{"substance": "His6-Cys-[SCH2]-aminocaproate-σ568-600 [His-tagged σ568-600]", "values": [{"measurement": "interaction with wild type, untagged AsiA", "result": "strong interaction"}]}
